Consider five molecules from patent US8569265B2, “Deuterated analogs of (4S)-4-ethyl-4-hydroxy-11-[2- (trimethylsilyl)ethyl]-1H-pyrano[3′, 4′:6,7] indolizino [1,2-b]quinoline-3,14(4H, 12H)-dione and methods of use thereof” (BioNumerik Pharmaceuticals, Inc., priority 2011, dated 2013).

For data set [1], the system named is doxorubicin-resistant human ovarian cancer cells (A2780/DX5). In words: Sulforhodamine B (SRB) cytotoxicity assay, A2780/DX5. Type of data set: cell-based. To be noted: for IC50: Homo sapiens, A2780/DX5, 2 hour drug treatments; for IC50 values in words (inhibition of cell growth): doxorubicin resistant (A2780/DX5) ovarian cancer cells. An excerpt:
(§1) The sulforhodamine B (SRB) assay was used to assess cytotoxicity and absorbance at 570 nm (A570) in order to calculate the percentage of cell control (or percent cell survival) for wild-type human ovarian cancer cells (A2780/WT) and doxorubicin-resistant human ovarian cancer cells (A2780/DX5) treated with BNP1350, BNP10120 (a di-deuterated analog of BNP1350) and BNP10121 (a tetra-deuterated analog of BNP1350).
(§2) Roswell Park Memorial Institute (RPMI 1640) medium, fetal bovine serum (FBS), and L-glutamine were purchased from Gibco BRL. Drugs were dissolved in sterile dimethylsulfoxide (DMSO), from American Type Culture Collection (ATCC) for stock solutions (2.5 to 5.0 mM). Subsequent dilutions were made using cell culture medium (prior to adding the drug to cells). SRB was purchased from Sigma and dissolved in 1.0 percent acetic acid. Trichloroacetic acid was purchased from VWR International. BNP1350, BNP10120 (a di-deuterated analog of BNP1350) and BNP10121 (a tetra-deuterated analog of BNP1350) were synthesized and purified by BioNumerik Pharmaceuticals, Inc.
(§3) Cells were manipulated in a Class IIA/B3 Biological Safety Cabinet (Forma Scientific) and maintained at 37° C. in a humidified atmosphere containing 5% CO2 in a water-jacketed cell culture incubator (Forma Scientific). Cells were counted using a Coulter-Z1 counter (Beckman-Coulter). Following drug treatment, plates were washed using a Biomek 2000 station (Beckman) and, following exposure to SRB dye, plates were washed using an automated plate washer (Model EL404, Bio-Tek Instruments). Percentage of control was correlated to A570 values and determined using a Model EL800 plate reader (Bio-Tek Instruments).
(§4) Wild-type human ovarian cancer cells (A2780/WT) and doxorubicin-resistant human ovarian cancer cells (A2780/DX5) were cultured in RPMI 1640 medium supplemented with 10% fetal bovine serum and 2 mM L-glutamine, and grown in a 37° C. incubator with 5% CO2. Population doubling times for the two cell lines used in this study encompassed a total of five cell doublings corresponding to approximately 5 days for A2780/WT and A2780/DX5 cells. Both cell lines were maintained as monolayered cultures in T-25 or T-75 flasks and then seeded to microtiter plate wells for experiments described herein.
(§5) In brief, cells were seeded (500 cells/well in 100 μL total volume) into 96-well microtiter plates and allowed to attach for 24 hours prior to treatment with BNP1350, BNP10120 or BNP10121 for 2 hours. The aforementioned compounds were dissolved in DMSO for use in cytotoxicity experiments where inhibition of cell growth was measured using the SRB assay.
(§6) Following this 2 hour drug treatment, the BNP1350, BNP10120 and BNP10121 were removed, cells were washed with drug-free media (200 μL) and then drug-free media (200 μL) was added to the cells and cells were allowed to continue growing at 37° C. with 5% CO2 before the SRB assay was performed (total experiment time from time of seeding was 5 days, during which time a total of 5 cell doublings had occurred).
(§7) Prior to SRB assays, cell viability was monitored by evaluation of microtiter plate wells. Dead cells detach and float while living cells remain attached to the bottom of the cell well.
(§8) The sulforhodamine B (SRB) cytotoxicity assay (see, Skehan P, et al., New colorimetric cytotoxicity assay for anticancer-drug screening. J. Natl. Cancer Inst. 82:1107-1112 (1990)) was used to determine the cytotoxic effects of BNP1350, BNP10120 or BNP10121 on cell growth in vitro. Briefly, after the medium was aspirated from individual plate wells, trichloroacetic acid (100 μL of 10.0% solution) was added to each well, and the plates were incubated at 4° C. for at least 1 hour. The plates were washed five-times with water using an automated microplate washer (Model EL 404, Bio-Tek Instruments), SRB solution (100 μL of 0.4 grams SRB dissolved in 100 mL 1.0 percent acetic acid) was added, and plates remained at room temperature for 15 minutes. […]
A general note: The SRB assay estimates cell density from bound dye.

Data set [2] concerns wild-type human ovarian cancer cells (A2780/WT). The data set is described as follows: Sulforhodamine B (SRB) cytotoxicity assay, A2780/WT. As to conditions: for IC50: Homo sapiens, A2780/WT, 2 hour drug treatments; for IC50 values in words (inhibition of cell growth): wild-type (A2780/WT) ovarian cancer cells. Type of data set: cell-based.
From the text: as §1, §2, §3, §4, §5, §6, §7, §8

Data set [3] relates to PHA-stimulated lymphocytes and normal glial cells. As to conditions: 90% D2O; cited from earlier work.
In data set [4] the test system is malignant melanoma and carcinoma cells (colon carcinoma, glioblastoma, and small lung cell cancer cells). As to conditions: cited from earlier work.
The conditions of data set [5]: clinical trial; cited from earlier work.
The mark [6] stands for this setting: average of Test 1 and Test 2, read-out: IC50 Average.

Each structure is given as a SMILES string. Like-named read-outs stand apart in the source and are kept apart here.

As to `CC[C@@]1(O)C(=O)OCc2c1cc1n(c2=O)Cc2c-1nc1ccccc1c2CC[Si](C)(C)C` [BNP1350, (4S)-4-Ethyl-4-hydroxy-11-[2-(trimethylsilyl)ethyl]-1H-pyrano[3′,4′:6,7]indolizino[1,2-b]quinoline-3,14(4H,12H)-dione, reference compound], the concentration for half-maximal inhibition (IC50) (usually the concentration at which inhibition is half-maximal) in data set [1] (setting [6]) amounted to 7.3 nM; in data set [1] (read-out: IC50 Test 1), 7.7 nM; in data set [1] (read-out: IC50 Test 2), 6.9 nM; in data set [2] (setting [6]), 1.9 nM; in data set [2] (read-out: IC50 Test 1) it was 1.9 nM; in data set [2] (read-out: IC50 Test 2), 1.8 nM. The “IC50 values in words (inhibition of cell growth)” value in data set [1] and in data set [2] was “nanomolar” each time.

For `[2H]C1([2H])c2c(nc3ccccc3c2CC[Si](C)(C)C)-c2cc3c(c(=O)n21)COC(=O)[C@]3(O)CC` [BNP10120, (4S)-12,12-Dideutero-4-ethyl-4-hydroxy-11-[2-(trimethylsilyl)ethyl]-1H-pyrano[3′,4′:6,7]indolizino[1,2-b]quinoline-3,14(4H,12H)-dione], the IC50 in data set [1] (setting [6]) is 8.5 nM; in data set [1] (read-out: IC50 Test 1) it was 9.9 nM; in data set [1] (read-out: IC50 Test 2), 7.1 nM; in data set [2] (setting [6]) it was 2.6 nM; in data set [2] (read-out: IC50 Test 1) it was 3.5 nM; in data set [2] (read-out: IC50 Test 2), 1.6 nM. In addition, the “IC50 values in words (inhibition of cell growth)” value in data set [1] and in data set [2] was “nanomolar” throughout.

Turning to `[2H]C([2H])(c1c2c(nc3ccccc13)-c1cc3c(c(=O)n1C2)COC(=O)[C@]3(O)CC)C([2H])([2H])[Si](C)(C)C` [BNP10121, (S)-4-Ethyl-4-hydroxy-11-[1,1,2,2-tetradeutero-2-(trimethylsilyl)ethyl]-1H-pyrano[3′,4′:6,7]indolizino[1,2-b]quinoline-3,14(4H,12H)-dione], the IC50 in data set [1] (setting [6]) was 11.7 nM; in data set [1] (read-out: IC50 Test 1), 12 nM; in data set [1] (read-out: IC50 Test 2), 11.3 nM; in data set [2] (setting [6]), 6.1 nM; in data set [2] (read-out: IC50 Test 1) it was 6.1 nM; in data set [2] (read-out: IC50 Test 2), 6 nM. The “IC50 values in words (inhibition of cell growth)” value in data set [1] and in data set [2] was “nanomolar” each time.

As for `[2H]O[2H]` [D2O], the cells killed is recorded as 5% in data set [3]; 70% in data set [4] (90% D2O, malignant melanoma and carcinoma cells). Moreover, the “viable fraction of malignant cells” value in data set [4] (9 days of treatment with 90% D2O) is recorded as “about 0.1%”.

In the case of `[2H]C([2H])([2H])Oc1ccc(C(CN(C([2H])([2H])[2H])C([2H])([2H])[2H])C2(O)CCCCC2)cc1` (centres unmarked) [SD-254], in data set [5], the “rate of metabolism relative to Effexor” value was “half as fast” and the “time after which pharmacologically-effective levels of the drug were maintained” value is given as 24 hours.
